What was measured:
[1] = tested on: guard cells of x-luc1 and x-luc9 ecto-luciferase lines; assay: Ecto-luciferase luminescence imaging of extracellular ATP in epidermal peels; type: cell-based, Arabidopsis thaliana; conditions: 10 μM
Text: Ecto-luciferase Construct and Plant Transformation: The nucleotide sequence for the 24 amino acid, cleavable signal peptide from the Brassica pollen coat protein, S-locus cysteine-rich protein (SCR13; AF195626) was used to target luciferase for secretion (Schopfer et al., 1999). The signal peptide was incorporated at the N-terminus of the luciferase gene by PCR and the SCR13 signal peptide modified luciferase PCR product was then ligated into the binary vector pLBJ21. This construct was then transformed into Agrobacterium tumefaciens strain GV3101 (pMP90) and then transformed into Arabidopsis plants (Col-0) using the floral dipping method (Clough and Bent, 1998). Transgenic plants were selected by planting on solidified Murashige and Skoog (MS) medium (4.3 g/L Murashige and Skoog salts (Sigma), 0.5% (w/v) MES, and 1.0% (w/v) agar, raised to pH 5.7 with 5 M KOH) containing 50 μg/mL kanamycin. Segregation of T3 generation on kanamycin plates was analysed in order to obtain homozygous lines. Plants showing kanamycin resistance were checked for luciferase activity by growing transgenic plants in MS medium for 10 days and then transferring the whole seedlings into test tubes. Luminescence measurements were performed by placing the test tubes in the light-tight housing of the luminometer reader (Dynatech). Experimental solutions with luciferin substrate with and without 1 mM ATP were injected by an automatic injector, and after 3 seconds counting started at 0.2 second time intervals.
Imaging of Luminescence in Ecto-luciferase Plants: Ecto-luciferase seeds were surface-sterilized, stratified in the dark in 4° C. for at least three days and then planted directly on a cellophane membrane placed upon solidified MS with 1.0% (w/v) agar. Planted plates were placed upright in a culture chamber and grown at 23° C. under 24-h fluorescent light for 7 days. Plates were then reoriented so that the solidified MS medium was at the bottom of the plate and the seedling was able to grow up into the empty space of the petri dish. Seedlings were then allowed to mature for up to 4 weeks under identical temperature and light settings. For “dark” studies petri dishes of 3-4 week old plants were placed in a dark chamber for 24 hours prior to use in the studies.
Mature basal leaves were excised from x-luc1 and x-luc9 plants 3-4 weeks old. Peels were taken and then immediately floated with the abaxial side up in 40 μL, of Arabidopsis leaf buffer on a microscope slide and the chemical being tested in either light or dark conditions depending on the experimental setup. The placing of the peels within their respective solution was considered time zero. Peels were treated for a minimum of 5 minutes before luciferin and flash buffer were added to the solution. […] Luminescence was integrated over 120 seconds, High Gain, Read Out set to slow, using 4×4 pixel binning with Cosmic Suppression on, Background Correction off, and Flatfield Correction off with the filter set to Photo.
All luminescence analysis was conducted using the indiGO Analysis Software (version 2.0.0.26). All images consisted of a photographic image in grayscale with an overlaid luminescence image in pseudo color. […]

[2] = tested on: stomata of atrbohD/F mutant leaves; assay: Stomatal closing studies with whole leaves of atrbohD/F mutant; type: cell-based, Arabidopsis thaliana; conditions: 10 μM
Description: Stomatal Aperture Studies: Arabidopsis thaliana ecotypes Columbia (Col-0) and Wassilewskija (WS) were used as wild types in this study. Col-0, nia1nia2, atrbohD/F, R2-4A and WS plants were all grown on autoclaved Metro-Mix 200 soil at 22° C. under continuous light. The mutant seeds nia1nia2 nia2-5; CS 2356; Col-0 background) were obtained from Dr. N. M. Crawford (University of California at San Diego) and the mutant seeds atrbohD/F (Col-0 background) were obtained from Dr. J. M. Kwak (University of Maryland). The RNAi mutant apyrase line (R2-4A) is in WS background, so WS ecotype was used as the control wild type for these studies. […]
After treatment, photos of stomata were taken using a light microscope at 20×. Stomatal aperture width was measured using the image processing software ImageJ. Typically, photos were taken of 70 to 90 stomata per treatment of which only 50 stomata were measured for each treatment. For each treatment the ratio of closed stomata (width of 0) to open stomata was determined for all stomata imaged and this ratio was maintained in the 50 stomata that were measured for each treatment. Data shown uses apertures determined as width/length, however data in all studies also obtained as width only and generally width/length and width only data are in agreement with each other. […]

SMILES: CC1=CC(=O)CC(C)(C)[C@@]1(O)/C=C/C(C)=C\C(=O)O [ABA, abscisic acid]
- ecto-luciferase luminescence in the location of stomata, average ([1]; 5 min, x-luc9 peels, open stomata, light): 3.57 cps
- ecto-luciferase luminescence after return to control levels ([1]; after 15 min of continuous exposure): about 0.80 cps
- effect on stomatal aperture [2]: no effect on stomatal aperture
